Reference: PubChem BioAssay AID272 (DTP/NCI, 2004)
Values joined by “and” are separate entries in the source; they are usually repeats but may differ in a detail not shown here. Equal values may be shown once. Inconclusive results are not listed.

System: Lewis lung carcinoma i.m., BDF1 mice, T/C %
Assay: NCI In Vivo Anticancer Drug Screen. Data for tumor model Lewis Lung Carcinoma (intramuscular) in B6D2F1 (BDF1) mice
Outline: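 Value is the ratio of a treated-group measurement (T) to the matching vehicle-control measurement (C), using either survival or tumour size in mice bearing transplanted tumours.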

CNNCc1ccc(C(=O)NC(C)C)cc1
T/C (endpoint: mean tumor weight (est.), dose: 23.0 mg/kg/injection, schedule: Q01DX009 (ip), vehicle: saline, higher = larger tumour): 86 % of control | T/C (endpoint: mean tumor weight (est.), dose: 39.0 mg/kg/injection, schedule: Q01DX009 (ip), vehicle: saline, higher = larger tumour): 95 % of control | T/C (endpoint: mean tumor weight (est.), dose: 65.0 mg/kg/injection, schedule: Q01DX009 (ip), vehicle: saline, higher = larger tumour): 64 % of control | T/C (endpoint: mean tumor weight (est.), dose: 108.0 mg/kg/injection, schedule: Q01DX009 (ip), vehicle: saline, higher = larger tumour): 79 % of control | T/C (endpoint: mean tumor weight (est.), dose: 180.0 mg/kg/injection, schedule: Q01DX009 (ip), vehicle: saline, higher = larger tumour): 95 % of control | T/C (endpoint: mean tumor weight (est.), dose: 300.0 mg/kg/injection, schedule: Q01DX009 (ip), vehicle: saline, higher = larger tumour): 37 % of control | T/C (endpoint: mean tumor weight, dose: 23.0 mg/kg/injection, schedule: Q01DX011 (ip), vehicle: saline, higher = larger tumour): 100 % of control | T/C (endpoint: mean tumor weight, dose: 37.5 mg/kg/injection, schedule: Q01DX011 (ip), vehicle: saline, higher = larger tumour): 78 % of control | T/C (endpoint: mean tumor weight, dose: 39.0 mg/kg/injection, schedule: Q01DX011 (ip), vehicle: saline, higher = larger tumour): 72 % of control | T/C (endpoint: mean tumor weight, dose: 65.0 mg/kg/injection, schedule: Q01DX011 (ip), vehicle: saline, higher = larger tumour): 37 % of control | T/C (endpoint: mean tumor weight, dose: 75.0 mg/kg/injection, schedule: Q01DX011 (ip), vehicle: saline, higher = larger tumour): 62 % of control | T/C (endpoint: mean tumor weight, dose: 108.0 mg/kg/injection, schedule: Q01DX011 (ip), vehicle: saline, higher = larger tumour): 62 % of control | T/C (endpoint: mean tumor weight, dose: 150.0 mg/kg/injection, schedule: Q01DX011 (ip), vehicle: saline, higher = larger tumour): 35 % of control | T/C (endpoint: mean tumor weight, dose: 180.0 mg/kg/injection, schedule: Q01DX011 (ip), vehicle: saline, higher = larger tumour): 41 % of control | T/C (endpoint: median survival time, dose: 37.5 mg/kg/injection, schedule: Q01DX011 (ip), vehicle: saline, higher = longer survival): 97 % of control | T/C (endpoint: median survival time, dose: 75.0 mg/kg/injection, schedule: Q01DX011 (ip), vehicle: saline, higher = longer survival): 91 % of control | T/C (endpoint: median survival time, dose: 150.0 mg/kg/injection, schedule: Q01DX011 (ip), vehicle: saline, higher = longer survival): 95 % of control

CCCCN(C)C(=S)S[Te](SC(=S)N(C)CCCC)(SC(=S)N(C)CCCC)SC(=S)N(C)CCCC
T/C (endpoint: mean tumor weight (est.), dose: 100.0 mg/kg/injection, schedule: Q01DX011 (ip), vehicle: saline, higher = larger tumour): 59 % of control | T/C (endpoint: mean tumor weight (est.), dose: 200.0 mg/kg/injection, schedule: Q01DX011 (ip), vehicle: saline, higher = larger tumour): 36 % of control | T/C (endpoint: mean tumor weight (est.), dose: 400.0 mg/kg/injection, schedule: Q01DX011 (ip), vehicle: saline, higher = larger tumour): 17 % of control | T/C (endpoint: median survival time, dose: 100.0 mg/kg/injection, schedule: Q01DX011 (ip), vehicle: saline, higher = longer survival): 114 % of control | T/C (endpoint: median survival time, dose: 200.0 mg/kg/injection, schedule: Q01DX011 (ip), vehicle: saline, higher = longer survival): 110 % of control | T/C (endpoint: median survival time, dose: 400.0 mg/kg/injection, schedule: Q01DX011 (ip), vehicle: saline, higher = longer survival): 121 % of control

COc1cccc2c1C(=O)c1c(O)c3c(c(O)c1C2=O)C[C@@](O)(C(=O)CO)C[C@@H]3OC1CC(N)C(O)C(C)O1 (stereo not given in full)
T/C (endpoint: median survival time, dose: 0.25 mg/kg/injection, schedule: Q01DX011 (ip), vehicle: water, higher = longer survival): 100 % of control and 120 % of control | T/C (endpoint: median survival time, dose: 0.65 mg/kg/injection, schedule: Q03HX008 (ip), vehicle: water, higher = longer survival): 100 % of control and 102 % of control | T/C (endpoint: median survival time, dose: 1.08 mg/kg/injection, schedule: Q03HX008 (ip), vehicle: water, higher = longer survival): 123 % of control | T/C (endpoint: median survival time, dose: 1.8 mg/kg/injection, schedule: Q03HX008 (ip), vehicle: water, higher = longer survival): 26 % of control | T/C (endpoint: median survival time, dose: 3.0 mg/kg/injection, schedule: Q03HX008 (ip), vehicle: water, higher = longer survival): 17 % of control

CN(C)c1nc(N(C)C)nc(N(C)C)n1
T/C (endpoint: mean tumor weight (est.), dose: 25.0 mg/kg/injection, schedule: Q01DX011 (ip), vehicle: saline with Tween-80, higher = larger tumour): 68 % of control | T/C (endpoint: mean tumor weight (est.), dose: 50.0 mg/kg/injection, schedule: Q01DX011 (ip), vehicle: saline with Tween-80, higher = larger tumour): 97 % of control | T/C (endpoint: mean tumor weight (est.), dose: 100.0 mg/kg/injection, schedule: Q01DX011 (ip), vehicle: saline with Tween-80, higher = larger tumour): 37 % of control | T/C (endpoint: mean tumor weight, dose: 62.5 mg/kg/injection, schedule: Q01DX011 (ip), vehicle: steriod suspending solution, higher = larger tumour): 68 % of control | T/C (endpoint: mean tumor weight, dose: 125.0 mg/kg/injection, schedule: Q01DX011 (ip), vehicle: steriod suspending solution, higher = larger tumour): 63 % of control | T/C (endpoint: median survival time, dose: 62.5 mg/kg/injection, schedule: Q01DX011 (ip), vehicle: steriod suspending solution, higher = longer survival): 100 % of control | T/C (endpoint: median survival time, dose: 125.0 mg/kg/injection, schedule: Q01DX011 (ip), vehicle: steriod suspending solution, higher = longer survival): 104 % of control
